For the assay, the target named is T1, human LPA1 (Homo sapiens, UniProt Q92633).
T1 construct: expressed in transfected cells; host or cells: Chinese hamster ovary (CHO) cells
Nature of the assay: LPA1 functional antagonist assay (calcium flux). It is filed as cell-based. Conditions: read-out: hLPA1 IC50. Here is the method: The effectiveness of compounds of the present invention as LPA1 inhibitors can be determined in an LPA1 functional antagonist assay as follows:
The cells were then equilibrated to room temperature for 30 minutes before the assay. […] IC50 values were determined by fitting data to a 4-parameter logistic equation (GraphPad Prism, San Diego Calif.).

The mark [1] stands for this setting: CHO cells overexpressing human LPA1, calcium flux induced by 10 nM LPA.

The IC50 is the point on the concentration scale where inhibition reaches its midpoint.

Like-named read-outs stand apart in the source and are kept apart here.

T1 sequence (Q92633 whole entry): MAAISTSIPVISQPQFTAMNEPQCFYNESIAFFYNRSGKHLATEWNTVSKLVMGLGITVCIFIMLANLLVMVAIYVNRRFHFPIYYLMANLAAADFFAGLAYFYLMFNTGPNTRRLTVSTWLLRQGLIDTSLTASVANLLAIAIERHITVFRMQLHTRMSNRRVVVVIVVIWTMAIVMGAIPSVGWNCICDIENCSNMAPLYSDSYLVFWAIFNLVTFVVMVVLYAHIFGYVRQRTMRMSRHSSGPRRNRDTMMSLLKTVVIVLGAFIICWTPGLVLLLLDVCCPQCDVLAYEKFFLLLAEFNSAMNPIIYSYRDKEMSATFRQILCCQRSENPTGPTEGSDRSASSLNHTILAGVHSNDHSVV

In the case of `Cn1nnc(-c2ccc(O[C@@H]3CCC[C@@H](C(=O)O)C3)cc2)c1CNC(=O)OCc1ccccc1` (racemic) [Example 40, (±)-trans-3-(4-(5-((((benzyloxy)carbonyl)amino)methyl)-1-methyl-1H-1,2,3-triazol-4-yl)phenoxy)cyclohexane-1-carboxylic acid], the IC50 under setting [1] was determined as 664 nM. Same read-out and setting: next, `Cc1nc(-c2nnn(C)c2CNC(=O)OCc2ccccc2)ccc1O[C@@H]1CCC[C@@](F)(C(=O)O)C1` (racemic) [Example 209, (±)-Cis-3-((6-(5-((((benzyloxy)carbonyl)amino)methyl)-1-methyl-1H-1,2,3-triazol-4-yl)-2-methylpyridin-3-yl)oxy)-1-fluorocyclohexanecarboxylic acid]: 12 nM; `Cc1nc(-c2nnn(C)c2CNC(=O)N(C)C(C)C(C)C)ccc1O[C@H]1CCC[C@H](C(=O)O)C1` (single isomer, unassigned) [Example 125]: 1210 nM; `Cc1nc(-c2nnn(C)c2CNC(=O)NC(C)C(C)C)ccc1O[C@H]1CCC[C@H](C(=O)O)C1` (single isomer, unassigned) [Example 126]: 611 nM.

With `Cc1nc(-c2nnn(C)c2CNC(=O)OCC2CC2(F)F)ccc1OC1CCCC(C(=O)O)C1` (single isomer, unassigned) [Example 207], the IC50 under setting [1] is 44 nM. Take `Cc1nc(-c2nnn(C)c2CNC(=O)OCc2ccccc2)ccc1O[C@@H]1CCC[C@@](F)(C(=O)O)C1` (single isomer, unassigned) [Example 210]: under setting [1], the IC50 was 5 nM. On the same count and under the same terms, next, `Cc1nc(-c2nnn(C)c2CNC(=O)OCc2ccccc2)ccc1O[C@@H]1CCC[C@@](F)(C(=O)O)C1` (single isomer, unassigned) [Example 211]: 192 nM. For `Cc1nc(-c2nnn(C)c2CNC(=O)OC[C@H]2C[C@@H]2C)ccc1O[C@H]1CCC[C@H](C(=O)O)C1` (stereo in doubt) [Example 183, (1S,3S)-3((2-methyl-6-(1-methyl-5-(((((trans-2-methylcyclopropyl)methoxy)carbonyl)amino)methyl)-1H-1,2,3-triazol-4-yl)pyridin-3-yl)oxy)cyclohexane-1-carboxylic acid], the IC50 (human LPA1 functional antagonist assay) was 32 nM. Take `CC[C@H](C)COC(=O)NCc1c(-c2ccc(O[C@H]3CCC[C@H](C(=O)O)C3)c(C)n2)nnn1C` [Example 1, (1S,3S)-3-((2-Methyl-6-(1-methyl-5-(((((S)-2-methylbutoxy)carbonyl)amino)methyl)-1H-1,2,3-triazol-4-yl)pyridin-3-yl)oxy)cyclohexanecarboxylic acid]: the IC50 under setting [1] was determined as 18 nM. On the same count and under the same terms, next, `CC[C@H](C)COC(=O)N(C)Cc1c(-c2ccc(O[C@H]3CCC[C@H](C(=O)O)C3)c(C)n2)nnn1C` [Example 2, (1S,3S)-3-((2-Methyl-6-(1-methyl-5-((methyl(((S)-2-methylbutoxy)carbonyl)amino)methyl)-1H-1,2,3-triazol-4-yl)pyridin-3-yl)oxy)cyclohexanecarboxylic acid]: 29 nM; `CCCCOC(=O)NCc1c(-c2ccc(O[C@H]3CCC[C@H](C(=O)O)C3)c(C)n2)nnn1C` [Example 3, (1S,3S)-3-((6-(5-(((butoxycarbonyl)amino)methyl)-1-methyl-1H-1,2,3-triazol-4-yl)-2-methylpyridin-3-yl)oxy)cyclohexane-1-carboxylic acid]: 14 nM. Same read-out and setting: the value for `CCCCOC(=O)NCc1c(-c2ccc(O[C@H]3CCC[C@H](C(=O)O)C3)cn2)nnn1C` [Example 5, (1S,3S)-3-((6-(5-(((butoxycarbonyl)amino)methyl)-1-methyl-1H-1,2,3-triazol-4-yl)pyridin-3-yl)oxy)cyclohexane-1-carboxylic acid] was 96 nM; that for `Cn1nnc(-c2ccc(O[C@H]3CCC[C@H](C(=O)O)C3)cn2)c1CNC(=O)OC1CCCC1` [Example 6, (1S,3S)-3-((6-(5-((((cyclopentyloxy)carbonyl)amino)methyl)-1-methyl-1H-1,2,3-triazol-4-yl)pyridin-3-yl)oxy)cyclohexane-1-carboxylic acid] was 84 nM; that for `Cc1nc(-c2nnn(C)c2CNC(=O)OCC2CC2)ccc1O[C@H]1CCC[C@H](C(=O)O)C1` [Example 7, (1S,3S)-3-((6-(5-((((cyclopropylmethoxy)carbonyl)amino)methyl)-1-methyl-1H-1,2,3-triazol-4-yl)-2-methylpyridin-3-yl)oxy)cyclohexane-1-carboxylic acid] was 47 nM. The same measure, in the same setting: the value for `Cc1nc(-c2nnn(C)c2CNC(=O)OCc2cc(F)cc(F)c2)ccc1O[C@H]1CCC[C@H](C(=O)O)C1` [Example 8, (1S,3S)-3-((6-(5-(((((3,5-difluorobenzyl)oxy)carbonyl)amino)methyl)-1-methyl-1H-1,2,3-triazol-4-yl)-2-methylpyridin-3-yl)oxy)cyclohexane-1-carboxylic acid] was 5 nM. Consider `Cn1nnc(-c2ccc(O[C@H]3CCC[C@H](C(=O)O)C3)cn2)c1CNC(=O)OCCc1ccccc1` [Example 9, (1S,3S)-3-((6-(1-methyl-5-(((phenethoxycarbonyl)amino)methyl)-1H-1,2,3-triazol-4-yl)pyridin-3-yl)oxy)cyclohexane-1-carboxylic acid], for which the IC50 under setting [1] turned out to be 672 nM. Same read-out and setting: next, `C[C@@H](OC(=O)NCc1c(-c2ccc(O[C@H]3CCC[C@H](C(=O)O)C3)cn2)nnn1C)c1ccccc1` [Example 10, (1S,3S)-3-((6-(1-methyl-5-(((((R)-1-phenylethoxy)carbonyl)amino)methyl)-1H-1,2,3-triazol-4-yl)pyridin-3-yl)oxy)cyclohexane-1-carboxylic acid]: 104 nM; `Cc1nc(-c2nnn(C)c2CNC(=O)OCc2cccc(F)c2)ccc1O[C@H]1CCC[C@H](C(=O)O)C1` [Example 11, (1S,3S)-3-((6-(5-(((((3-fluorobenzyl)oxy)carbonyl)amino)methyl)-1-methyl-1H-1,2,3-triazol-4-yl)-2-methylpyridin-3-yl)oxy)cyclohexane-1-carboxylic acid]: 6 nM. Same read-out and setting: next, `Cn1nnc(-c2ccc(O[C@H]3CCC[C@H](C(=O)O)C3)cn2)c1CNC(=O)OCc1cccc(F)c1` [Example 12, (1S,3S)-3-((6-(5-(((((3-fluorobenzyl)oxy)carbonyl)amino)methyl)-1-methyl-1H-1,2,3-triazol-4-yl)pyridin-3-yl)oxy)cyclohexane-1-carboxylic acid]: 23 nM. Take `CCCCCCOC(=O)NCc1c(-c2ccc(O[C@H]3CCC[C@H](C(=O)O)C3)cn2)nnn1C` [Example 13, (1S,3S)-3-((6-(5-((((hexyloxy)carbonyl)amino)methyl)-1-methyl-1H-1,2,3-triazol-4-yl)pyridin-3-yl)oxy)cyclohexane-1-carboxylic acid]: under setting [1], the IC50 was 428 nM.

For `CCCCOC(=O)N(C)Cc1c(-c2ccc(O[C@H]3CCC[C@H](C(=O)O)C3)cn2)nnn1C` [Example 14, (1S,3S)-3-((6-(5-(((butoxycarbonyl)(methyl)amino)methyl)-1-methyl-1H-1,2,3-triazol-4-yl)pyridin-3-yl)oxy)cyclohexane-1-carboxylic acid], the IC50 under setting [1] was determined as 1020 nM. Same read-out and setting: the value for `CCCCCOC(=O)N(C)Cc1c(-c2ccc(O[C@H]3CCC[C@H](C(=O)O)C3)cn2)nnn1C` [Example 15, (1S,3S)-3-((6-(1-methyl-5-((methyl((pentyloxy)carbonyl)amino)methyl)-1H-1,2,3-triazol-4-yl)pyridin-3-yl)oxy)cyclohexane-1-carboxylic acid] was 130 nM; that for `Cc1nc(-c2nnn(C)c2CNC(=O)OCCc2ccccc2)ccc1O[C@H]1CCC[C@H](C(=O)O)C1` [Example 16, (1S,3S)-3-((2-methyl-6-(1-methyl-5-(((phenethoxycarbonyl)amino)methyl)-1H-1,2,3-triazol-4-yl)pyridin-3-yl)oxy)cyclohexane-1-carboxylic acid] was 32 nM; that for `Cc1nc(-c2nnn(C)c2CNC(=O)OCc2cc(F)ccc2F)ccc1O[C@H]1CCC[C@H](C(=O)O)C1` [Example 17, (1S,3S)-3-((6-(5-(((((2,5-difluorobenzyl)oxy)carbonyl)amino)methyl)-1-methyl-1H-1,2,3-triazol-4-yl)-2-methylpyridin-3-yl)oxy)cyclohexane-1-carboxylic acid] was 7 nM.

For `Cc1nc(-c2nnn(C)c2CNC(=O)O[C@H](C)c2ccccc2)ccc1O[C@H]1CCC[C@H](C(=O)O)C1` [Example 18, (1S,3S)-3-((2-methyl-6-(1-methyl-5-(((((R)-1-phenylethoxy)carbonyl)amino)methyl)-1H-1,2,3-triazol-4-yl)pyridin-3-yl)oxy)cyclohexane-1-carboxylic acid], the IC50 under setting [1] stood at 12 nM.

Turning to `Cc1cccc(COC(=O)NCc2c(-c3ccc(O[C@H]4CCC[C@H](C(=O)O)C4)c(C)n3)nnn2C)c1` [Example 19, (1S,3S)-3-((2-methyl-6-(1-methyl-5-(((((3-methylbenzyl)oxy)carbonyl)amino)methyl)-1H-1,2,3-triazol-4-yl)pyridin-3-yl)oxy)cyclohexane-1-carboxylic acid], the IC50 under setting [1] was 4 nM. Still for that read-out and setting: the value for `CCCCCCOC(=O)NCc1c(-c2ccc(O[C@H]3CCC[C@H](C(=O)O)C3)c(C)n2)nnn1C` [Example 20, (1S,3S)-3-((6-(5-((((hexyloxy)carbonyl)amino)methyl)-1-methyl-1H-1,2,3-triazol-4-yl)-2-methyl-pyridin-3-yl)oxy)cyclohexane-1-carboxylic acid] was 3 nM; that for `COCCOC(=O)NCc1c(-c2ccc(O[C@H]3CCC[C@H](C(=O)O)C3)c(C)n2)nnn1C` [Example 21, (1S,3S)-3-((6-(5-((((2-methoxyethoxy)carbonyl)amino)methyl)-1-methyl-1H-1,2,3-triazol-4-yl)-2-methylpyridin-3-yl)oxy)cyclohexane-1-carboxylic acid] was 1620 nM.
